The structures appear in SMILES notation.

As usually defined, the melting point is the temperature, or range, at which the solid turns liquid. `Cc1nc(NC(=O)c2nnn(Cc3ccc(Cl)c(Cl)c3)c2C)sc1C(=O)N1CCN(C)CC1` [Example 25, 1-[(3,4-Dichlorophenyl)methyl]-5-methyl-N-{4-methyl-5-[(4-methyl-1-piperazinyl)carbonyl]-1,3-thiazo1-2-yl}-1H-1,2,3-triazole-4-carboxamide] gave a melting point of 216.9 °C.

For `COCCNC(=O)c1sc(NC(=O)c2nnn(Cc3ccc(Cl)c(Cl)c3)c2C)nc1C` [Example 26, 1-[(3,4-Dichlorophenyl)methyl]-5-methyl-N-[4-methyl-5-({[2-(methyloxy)ethyl]amino}carbonyl)-1,3-thiazol-2-yl]-1H-1,2,3-triazole-4-carboxamide], the melting point is 129 °C. For the molecule `Cc1nc(NC(=O)c2nnn(Cc3ccc(Cl)c(Cl)c3)c2C)sc1C(=O)NCCO` [Example 27, 1-[(3,4-Dichlorophenyl)methyl]-N-(5-{[(2-hydroxyethyl)-amino]carbonyl}-4-methyl-1,3-thiazol-2-yl)-5-methyl-1H-1,2,3-triazole-4-carboxamide], the melting point was 166 °C. Regarding `CNC(=O)c1cnc(NC(=O)c2nnn(Cc3ccc(Cl)c(Cl)c3)c2C)s1` [Example 29, 1-[(3,4-Dichlorophenyl)methyl]-5-methyl-N-{5-[(methylamino)carbonyl]-1,3-thiazol-2-yl}-1H-1,2,3-triazole-4-carboxamide], the melting point came out at 335.6 °C. Molecule `Cc1c(C(=O)Nc2ncc(C(=O)N(C)C)s2)nnn1Cc1ccc(Cl)c(Cl)c1` [Example 30, 1-[(3,4-Dichlorophenyl)methyl]-N-{5-[(dimethylamino)carbonyl]-1,3-thiazol-2-yl}-5-methyl-1H-1,2,3-triazole-4-carboxamide] registered a melting point of 304.9 °C. Then `Cc1c(C(=O)Nc2ncc(C(=O)NCCO)s2)nnn1Cc1ccc(Cl)c(Cl)c1` [Example 31, 1-[(3,4-Dichlorophenyl)methyl]-N-(5-{[(2-hydroxyethyl)-amino]carbonyl}-1,3-thiazol-2-yl)-5-methyl-1H-1,2,3-triazole-4-carboxamide], with 260.4 °C.

Take `CNC(=O)c1ccnc(NC(=O)c2nnn(Cc3ccc(Cl)c(Cl)c3)c2C)c1` [Example 32, 2-[({1-[(3,4-Dichlorophenyl)methyl]-5-methyl-1H-1,2,3-triazol-4-yl}carbonyl)amino]-N-methyl-4-pyridine-carboxamide]: the melting point amounted to 234.1 °C.

The molecule `CCNC(=O)c1sc(NC(=O)c2cn(Cc3ccc(Cl)c(Cl)c3)nn2)nc1C` [Example 33, 1-[(3,4-Dichlorophenyl)methyl]-N-{5-[(ethylamino)carbonyl]-4-methyl-1,3-thiazo1-2-yl}-1H-1,2,3-triazole-4-carboxamide] came in with a melting point of 210.6 °C. `CNC(=O)c1sc(NC(=O)c2cn(Cc3ccc(Cl)c(Cl)c3)nn2)nc1C` [Example 34, 1-[(3,4-Dichlorophenyl)methyl]-N-{4-methyl-5-[(methylamino)carbonyl]-1,3-thiazol-2-yl}-1H-1,2,3-triazole-4-carboxamide] returned a melting point of 210.4 °C. In turn, `O=C(Nc1ncc(C(=O)NCCO)s1)c1cn(Cc2ccc(Cl)c(Cl)c2)nn1` [Example 35, 1-[(3,4-Dichlorophenyl)methyl]-N-(5-{[(2-hydroxyethyl)amino]carbonyl}-1,3-thiazol-2-yl)-1H-1,2,3-triazole-4-carboxamide] showed a melting point of 274.8 °C. `NC(=O)c1cnc(NC(=O)c2cn(Cc3ccc(Cl)c(Cl)c3)nn2)s1` [Example 36, N-[5-(Aminocarbonyl)-1,3-thiazol-2-yl]-1-[(3,4-dichlorophenyl)methyl]-1H-1,2,3-triazole-4-carboxamide] displayed a melting point of 280.9 °C.

`Cc1nc(NC(=O)c2cn(Cc3ccc(Cl)c(Cl)c3)nn2)sc1C(N)=O` [Example 37, N-[5-(Aminocarbonyl)-4-methyl-1,3-thiazol-2-yl]-1-[(3,4-dichlorophenyl)methyl]-1H-1,2,3-triazole-4-carboxamide] came in with a melting point of 283 °C. `Cc1c(C(=O)Nc2nncs2)nnn1Cc1ccc(Cl)c(Cl)c1` [Example 38, 1-[(3,4-Dichlorophenyl)methyl]-5-methyl-N-1,3,4-thiadiazol-2-yl-1H-1,2,3-triazole-4-carboxamide]: the melting point came out at 215.6 °C. Consider `Cc1c(C(=O)Nc2ncc(CO)s2)nnn1Cc1ccc(Cl)c(Cl)c1` [Example 39, 1-[(3,4-Dichlorophenyl)methyl]-N-[5-(hydroxymethyl)-1,3-thiazol-2-yl]-5-methyl-1H-1,2,3-triazole-4-carboxamide], for which the melting point amounted to 170.5 °C. The value for `COCc1c(C(=O)Nc2ncc(CO)s2)nnn1Cc1ccc(Cl)c(Cl)c1` [Example 40, 1-[(3,4-Dichlorophenyl)methyl]-N-[5-(hydroxymethyl)-1,3-thiazol-2-yl]-5-[(methyloxy)methyl]-1H-1,2,3-triazole-4-carboxamide] was 205 °C. Then `Cc1nc(NC(=O)c2nnn(Cc3ccc(Cl)c(Cl)c3)c2C)sc1CO` [Example 41, 1-[(3,4-Dichlorophenyl)methyl]-N-[5-(hydroxymethyl)-4-methyl-1,3-thiazol-2-yl]-5-methyl-1H-1,2,3-triazole-4-carboxamide], with 161.8 °C; and `Cc1c(C(=O)Nc2nnc(CO)s2)nnn1Cc1ccc(Cl)c(Cl)c1` [Example 42, 1-[(3,4-Dichlorophenyl)methyl]-N-[5-(hydroxymethyl)-1,3,4-thiadiazol-2-yl]-5-methyl-1H-1,2,3-triazole-4-carboxamide], with 153.6 °C. In the case of `Cc1c(C(=O)Nc2cc(CO)ccn2)nnn1Cc1ccc(Cl)c(Cl)c1` [Example 44, 1-[(3,4-Dichlorophenyl)methyl]-N-[4-(hydroxymethyl)-2-pyridinyl]-5-methyl-1H-1,2,3-triazole-4-carboxamide], the melting point was found to be 191 °C. As to `COc1ccc2nc(C(=O)Nc3nnn(Cc4ccc(Cl)c(Cl)c4)c3C)sc2c1` [Example 45, N-{1-[(3,4-Dichlorophenyl)methyl]-5-methyl-1H-1,2,3-triazol-4-yl}-6-(methyloxy)-1,3-benzothiazole-2-carboxamide], the melting point came out at 176 °C.
